For experiment [1], the target named is T1, Apoptotic protease-activating factor 1 (Homo sapiens, UniProt O14727).
T1 sequence (O14727 whole entry): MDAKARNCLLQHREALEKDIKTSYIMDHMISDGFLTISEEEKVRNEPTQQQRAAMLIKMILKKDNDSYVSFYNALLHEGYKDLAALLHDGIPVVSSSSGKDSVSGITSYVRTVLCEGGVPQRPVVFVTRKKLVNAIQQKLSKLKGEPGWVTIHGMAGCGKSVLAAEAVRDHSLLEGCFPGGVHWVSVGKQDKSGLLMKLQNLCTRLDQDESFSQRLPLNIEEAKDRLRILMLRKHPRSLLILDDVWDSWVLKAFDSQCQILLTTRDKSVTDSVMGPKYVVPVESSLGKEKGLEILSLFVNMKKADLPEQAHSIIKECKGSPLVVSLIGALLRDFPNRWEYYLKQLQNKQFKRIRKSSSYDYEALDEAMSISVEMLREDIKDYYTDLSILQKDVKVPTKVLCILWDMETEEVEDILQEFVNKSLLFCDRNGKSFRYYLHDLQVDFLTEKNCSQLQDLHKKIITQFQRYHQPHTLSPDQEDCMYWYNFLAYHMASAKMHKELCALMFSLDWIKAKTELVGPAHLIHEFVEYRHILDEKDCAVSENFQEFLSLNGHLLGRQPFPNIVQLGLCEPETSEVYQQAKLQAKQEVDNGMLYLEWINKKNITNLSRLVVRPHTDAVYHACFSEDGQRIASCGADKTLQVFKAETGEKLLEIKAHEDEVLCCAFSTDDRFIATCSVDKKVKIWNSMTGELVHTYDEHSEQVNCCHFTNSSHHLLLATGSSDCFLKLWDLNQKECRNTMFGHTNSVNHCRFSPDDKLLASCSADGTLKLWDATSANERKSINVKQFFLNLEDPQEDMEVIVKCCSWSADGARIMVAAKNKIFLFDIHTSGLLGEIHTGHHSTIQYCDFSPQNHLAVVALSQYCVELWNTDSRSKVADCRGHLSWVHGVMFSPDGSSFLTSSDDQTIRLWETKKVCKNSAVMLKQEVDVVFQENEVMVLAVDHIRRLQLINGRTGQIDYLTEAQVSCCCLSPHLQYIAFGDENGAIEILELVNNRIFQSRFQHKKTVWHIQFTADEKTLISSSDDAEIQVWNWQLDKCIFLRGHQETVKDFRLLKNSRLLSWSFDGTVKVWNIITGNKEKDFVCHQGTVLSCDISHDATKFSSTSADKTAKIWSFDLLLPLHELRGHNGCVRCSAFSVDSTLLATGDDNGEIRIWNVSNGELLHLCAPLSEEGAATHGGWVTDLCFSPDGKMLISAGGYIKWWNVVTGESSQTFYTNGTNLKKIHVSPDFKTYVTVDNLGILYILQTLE
Type of experiment: functional.

The target of experiment [2] is Photoreceptor-specific nuclear receptor (Homo sapiens, UniProt Q9Y5X4). The class given is functional, cell-based.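 Note: CHO-S cells with Gal4-NCOR and VP16-NR2E3 two-hybrid luciferase reporter.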
Chain of Photoreceptor-specific nuclear receptor (Q9Y5X4 whole entry, the tested form may be a part): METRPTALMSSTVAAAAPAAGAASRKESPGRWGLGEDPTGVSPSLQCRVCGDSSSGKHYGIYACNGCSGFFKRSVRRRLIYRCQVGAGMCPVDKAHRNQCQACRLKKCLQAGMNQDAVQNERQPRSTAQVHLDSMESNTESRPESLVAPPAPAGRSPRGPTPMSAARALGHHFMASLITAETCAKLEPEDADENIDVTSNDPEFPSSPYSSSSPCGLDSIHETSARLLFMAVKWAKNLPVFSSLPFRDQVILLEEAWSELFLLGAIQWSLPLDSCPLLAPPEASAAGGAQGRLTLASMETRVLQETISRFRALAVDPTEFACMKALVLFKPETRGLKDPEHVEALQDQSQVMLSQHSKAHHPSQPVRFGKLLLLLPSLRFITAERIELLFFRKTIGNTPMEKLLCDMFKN
For experiment [3], the target named is T2, Mitochondrial peptide methionine sulfoxide reductase (Bos taurus, UniProt P54149).
T2 sequence (P54149 whole entry): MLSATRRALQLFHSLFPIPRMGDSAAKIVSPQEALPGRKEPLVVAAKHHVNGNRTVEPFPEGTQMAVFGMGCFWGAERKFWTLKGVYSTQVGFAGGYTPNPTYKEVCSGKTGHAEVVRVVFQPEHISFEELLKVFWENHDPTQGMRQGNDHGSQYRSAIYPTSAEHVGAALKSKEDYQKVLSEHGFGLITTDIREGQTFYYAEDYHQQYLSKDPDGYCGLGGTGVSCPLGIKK
As to the kind of experiment: Absorbance-based biochemical high throughput dose response assay for activators of Methionine sulfoxide reductase A (MsrA). The class given is functional.

The target of another experiment is Genome polyprotein (dengue virus type 2, UniProt P29990). As to the kind of experiment: Dengue-2 NS5 methyltransferase inhibitors, primary screen, biochemical, confirmation dose response (AID 588689). Type of experiment: functional.
Chain of Genome polyprotein (P29990 2492-3391 limits assumed): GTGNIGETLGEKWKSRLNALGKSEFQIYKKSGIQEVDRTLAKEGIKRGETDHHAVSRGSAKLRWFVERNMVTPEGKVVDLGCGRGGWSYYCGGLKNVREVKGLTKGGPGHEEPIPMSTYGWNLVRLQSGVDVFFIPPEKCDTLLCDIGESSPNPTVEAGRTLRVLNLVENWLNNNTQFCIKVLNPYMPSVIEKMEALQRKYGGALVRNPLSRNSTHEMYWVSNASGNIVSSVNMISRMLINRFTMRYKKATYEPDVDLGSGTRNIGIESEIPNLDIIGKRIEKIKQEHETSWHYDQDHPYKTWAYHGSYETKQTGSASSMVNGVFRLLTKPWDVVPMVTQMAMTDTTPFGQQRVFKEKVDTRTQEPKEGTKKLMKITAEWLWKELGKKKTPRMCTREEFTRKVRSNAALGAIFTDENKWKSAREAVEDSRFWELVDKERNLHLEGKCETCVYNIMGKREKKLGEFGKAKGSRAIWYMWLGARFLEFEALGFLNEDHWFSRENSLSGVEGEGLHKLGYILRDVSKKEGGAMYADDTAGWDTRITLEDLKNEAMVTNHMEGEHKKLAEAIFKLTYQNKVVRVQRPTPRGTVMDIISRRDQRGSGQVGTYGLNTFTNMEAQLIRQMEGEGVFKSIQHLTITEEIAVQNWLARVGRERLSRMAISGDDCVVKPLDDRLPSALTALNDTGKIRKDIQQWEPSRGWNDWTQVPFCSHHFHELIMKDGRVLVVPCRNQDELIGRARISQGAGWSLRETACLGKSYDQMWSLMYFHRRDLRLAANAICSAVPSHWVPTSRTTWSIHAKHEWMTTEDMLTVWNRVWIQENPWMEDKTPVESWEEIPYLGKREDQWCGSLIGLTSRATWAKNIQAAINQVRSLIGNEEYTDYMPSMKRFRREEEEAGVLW
Experiment [4] deals with T3, Zinc finger protein mex-5 (Caenorhabditis elegans, UniProt Q9XUB2).
T3 sequence (Q9XUB2 whole entry): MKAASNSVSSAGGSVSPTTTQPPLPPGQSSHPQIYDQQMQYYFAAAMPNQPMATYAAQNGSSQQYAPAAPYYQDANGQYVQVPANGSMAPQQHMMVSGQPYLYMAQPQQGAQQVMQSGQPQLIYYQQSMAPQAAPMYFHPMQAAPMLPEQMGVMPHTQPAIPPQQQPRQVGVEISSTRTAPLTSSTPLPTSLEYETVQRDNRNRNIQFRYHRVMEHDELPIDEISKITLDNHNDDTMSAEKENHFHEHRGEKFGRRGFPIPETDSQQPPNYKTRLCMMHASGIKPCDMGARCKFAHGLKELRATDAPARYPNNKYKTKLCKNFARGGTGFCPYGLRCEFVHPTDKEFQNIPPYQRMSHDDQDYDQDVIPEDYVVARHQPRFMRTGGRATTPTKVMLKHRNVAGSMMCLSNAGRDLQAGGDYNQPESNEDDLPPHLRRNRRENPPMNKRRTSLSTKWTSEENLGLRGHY
In words: MEX-5/TCR-2 RNA interaction inhibitors, dose response, biochemical, C. elegans, fluorescence polarization (AID 1960). On the technique in general: Polarisation of emitted light reports the rotation of a fluorescent probe.

Experiment [5] is described as follows: Luminescence Cell-Based Dose Retest to Confirm Inhibitors of Cancer Stem Cells. [Related pubchem assays (depositor defined):AID2717, AID2721]. Particulars: Homo sapiens. Type of experiment: functional.
Experiment [6] concerns the target T4, Microphthalmia-associated transcription factor (Homo sapiens, UniProt O75030).
T4 sequence (O75030 whole entry): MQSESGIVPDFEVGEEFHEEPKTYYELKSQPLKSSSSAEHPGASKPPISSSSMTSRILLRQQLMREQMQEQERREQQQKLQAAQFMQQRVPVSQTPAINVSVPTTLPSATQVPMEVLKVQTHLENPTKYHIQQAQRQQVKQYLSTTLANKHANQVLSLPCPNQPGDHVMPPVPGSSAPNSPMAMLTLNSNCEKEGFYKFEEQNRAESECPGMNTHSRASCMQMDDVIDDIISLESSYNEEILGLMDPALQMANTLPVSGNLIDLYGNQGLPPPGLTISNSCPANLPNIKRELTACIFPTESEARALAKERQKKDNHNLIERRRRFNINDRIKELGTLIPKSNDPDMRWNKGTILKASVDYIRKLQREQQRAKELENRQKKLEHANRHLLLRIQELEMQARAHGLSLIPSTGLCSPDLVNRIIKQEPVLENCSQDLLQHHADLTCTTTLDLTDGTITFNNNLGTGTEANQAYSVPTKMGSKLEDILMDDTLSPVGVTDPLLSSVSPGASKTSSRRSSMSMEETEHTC
As to the kind of experiment: TRPM1 promoter luciferase signal decrease, dose response, MITF inhibitor project, cell-based, SK-MEL-5, cherry-picked, set 3 (AID 493073).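 Note: SK-MEL-5 melanoma cells with luciferase driven by the MITF target TRPM1 promoter.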 The class given is functional.

Experiment [7] concerns HEK293. As to the kind of experiment: cells. Type of experiment: functional, cell-based. As to conditions: Homo sapiens.
Experiment [8] deals with HEK293. As to the kind of experiment: NOD1 signaling inhibitors, primary screen, cell-based, luminescence, uHTS (AID 1578). The class given is functional. As to conditions: Homo sapiens.

The structures appear in SMILES notation. The source made the active and inactive calls.

IC50, EC50 and AC50 data for four compounds are collected here from ChEMBL document CHEMBL1201862, “PubChem BioAssay data set” (2004).

The term IC50 denotes the point on the concentration scale where inhibition reaches its midpoint. For orientation: EC50 means the midpoint of the concentration-response curve. `COc1ccc(CNC(=O)c2c(C)oc3c2C(=O)c2ccccc2C3=O)cc1`: the figures for the 50% inhibitory concentration (IC50) in [1] and in [2] were 23.1 µM (active) and 1.21 µM (active), respectively. The EC50 in experiment [3] was > 104 µM (inactive).

As for `CC(C)c1ccc(S(=O)(=O)/N=C2\C=C(NS(=O)(=O)c3ccccc3)C(=O)c3ccccc32)cc1`, the IC50 at Genome polyprotein was 25.7 µM (active).

Broadly, the AC50 is the midpoint of the concentration-response curve, whichever way the signal moves. Consider `O=[N+]([O-])c1ccc(/C=N/n2cnc3ccccc32)s1`, for which the EC50 in experiment [4] is > 300 µM (inconclusive). Besides, the half-maximal activity concentration (AC50) is 3.84 µM (active) in [5] and 6.25 µM (active) in [6].

For the compound `CCSc1nsc(NC(=O)Nc2cccc(F)c2)n1`, in the experiment with HEK293 [7], the IC50 was 3.7 µM (active). In addition, the concentration giving a half-maximal response (EC50) with HEK293 [8] was 3.22 µM (active).
